Results as given in patent US20070264276A1, “Vaccine for the prevention and treatment of Alzheimer's and amyloid related diseases” (priority 1999, published 2007).
Square brackets hold non-standard residues; d marks the D form. Ends that are not written are not given here.

Experiments:
[1] = test system: transgenic mouse model of brain amyloidosis; settings: vaccinated transgenic mice; cited from earlier work
[2] = Immunization of rabbits with KLVFFA peptide, antibody titers; assay type: in vivo; settings: rabbits immunized, KLH-conjugated peptide, FIG. 7
Description: Rabbits were immunized with all-D or all-L KLVFFA.
Standard assays for fibrillogenesis were used to evaluate activity, such as those based on Thioflavine T, circular dichroism and solubility.
Rabbits were immunized with D- or L-Aβ (16-21) peptide. Antibodies raised were tested for their antifibrillogenic activities by ThT assay and by electron microscopy (EM).

| Substance | formation of β-amyloid plaque, astrogliosis and neuritic dystrophy [1] | production of antibodies (antibody titers) [2] | production of antibodies (antibody titers) ([2]; listed as Aβ 16-21 (all-D)) |
| --- | --- | --- | --- |
| human aggregated all-L peptide: human aggregated all-L Aβ peptide used as immunogen in the vaccine of Schenk et al. (1999) | prevented the formation of β-amyloid plaque, astrogliosis and neuritic dystrophy | – | – |
| Aβ (16-21, all-D) ([dK][dL][dV][dF][dF][dA]) [all-D KLVFFA, KLVFFA] | – | causes production of antibodies | antibodies can be raised |
